From patent publication US20070176143A1, “Stable ill-defined cubic nanosized particles in a ternary aqueous phase” (YISSYM RESEARCH DEVELOPMENT COMPANY OF THE HEBREW …, priority 2003, published 2007)

Procedure: Well ordered liquid crystals have many applications all utilizing their relative structured character and the very large surface area they posses.
(§1) 2 gr of GMO were melted by heating to about 50° C. In a separate vessel, 2 gr of GMO and lycopene (0.0085 gr) were placed. The vessel was closed and its contents were mixed well with vortex until all the lycopene dissolved. 0.5 gr ethanol was added and the combination further mixed. The vessel was placed in a bath at a temperature of 45° C. 2.5 gr water were added.
2 gr of GMO were melted by heating to about 50° C. In a separate vessel, 2 gr of GMO and 0.5 gr of ethanol were placed. The vessel was closed and its contents were mixed well with vortex. The vessel was placed in a bath at 45° C.
as §1, with “carbamazepine (0.044” for “lycopene (0.0085”, “carbamazepine” for “lycopene”
2 gr of GMO were melted by heating to about 50° C. In a separate vessel, 2 gr of GMO and phytosterol (0.2 gr) were placed. […] 0.5 gr ethanol was added and the combination further mixed. The vessel was placed in a bath at a temperature of 45° C. 2.5 gr water were added.

Row | Molecule | solubilization in an aqueous phase comprising the QL semi-ordered phase
1 | CC(C)=CCC/C(C)=C/C=C/C(C)=C/C=C/C(C)=C/C=C/C=C(C)/C=C/C=C(C)/C=C/C=C(\C)CCC=C(C)C [Lycopene] | successfully solubilized
2 | NC(=O)N1c2ccccc2C=Cc2ccccc21 [carbamazapine, reference compound] | successfully solubilized
3 | CC1=C[C@H](O)CC(C)(C)[C@H]1/C=C/C(C)=C/C=C/C(C)=C/C=C/C=C(C)/C=C/C=C(C)/C=C/C1=C(C)C[C@@H](O)CC1(C)C [leutin] | successfully solubilized
4 | CC1=C(/C=C/C(C)=C/C=C/C(C)=C/C=C/C=C(C)/C=C/C=C(C)/C=C/C2=C(C)CCCC2(C)C)C(C)(C)CCC1 [β-carotene] | successfully solubilized
5 | phytosterol | all the phytosterol dissolved
